The source of these data is US20170354617A1, “METHOD OF TREATING OR PREVENTING OSTEOPOROSIS” (Research Foundation of the City University of New York, priority 2016, published 2017).

The subject of assay [1] is rats. The settings on record: injected at a dose of 1 mg per kg; cited from earlier work.
Assay [2] deals with aged mouse femur, age-related bone loss. Description: Age-related (Type 2) osteoporosis in aged mice, one year treatment. It is filed as in vivo. As to the method:
A one year old mouse is biologically similar to a 45-50 year-old human. Starting at 1 year of age, methylene blue was administered in the cage water supply (0.2% by weight) for one year to three male mice. Control mice received normal water. Animals were free to consume water and food ad libitum. Bones were examined when the mice were two years old, which is similar to a 75-80 year-old person.
FIG. 3A is a micro-Xray image of aged mouse femur from mouse with no treatment. Large holes or pores are clearly seen in the bone, as is thinning of the bone cortex. This is normal age-related osteoporosis.
FIG. 3B is a micro-Xray image of aged mouse femur from mouse after one year duration methylene blue treatment. No increases in porosity or cortex thinning are seen.

In assay [3] the test system is chronic renal calculus disease. Particulars: 65 mg taken three times a day; cited from earlier work.
Assay [4] has as its system estrogen-deficient (OVX) mice, post-menopausal type bone loss. Description: Ovariectomy (OVX) estrogen-depletion bone loss prevention in mice. It is filed as in vivo. An excerpt:
Young adult mice were subjected to surgical ovariectomy (OVX) to deplete estrogen. This is widely accepted model for inducing post-menopausal type bone loss. It is the standard used by pharmaceutical companies in preclinical trials and is required by the FDA to confirm efficacy of an agent in preventing bone loss. Seven sham control mice received a surgical incision and wound closure but ovaries were left intact. Mice were return to their cages after surgery. Six “MB” mice received methylene blue in the cage water (0.2% in cage water supply starting 24 hours before surgery) which they were allowed to consume ad libitum for the duration of the study (three months); the remainder of the mice received normal cage water. Mice were sacrificed at three months post-OVX and bones were examined using microCT. The results are depicted in FIG. 2A and FIG. 2B which show bone changes with estrogen loss (OVX) were prevented by systemic treatment with methylene blue (MB). FIG. 2B is a graph of Bone Volume over Total Volume (BV/TV) for the groups of mice.

Assay [5] relates to bipolar manic-depressive patients. Particulars: 300 mg per day for one year; cited from earlier work.

For the molecule `CN(C)c1ccc2nc3ccc(=[N+](C)C)cc-3sc2c1` [methylene blue], in assay [1], the “Brain oxidative metabolism and memory retention” value is “improved”. The “Bone porosity compared to bones from control mice” value in assay [2] (0.2% by weight in cage water for one year from 1 year of age, male mice, femur examined at two years old, FIG. 4) is on record as “about half”. Further, the “Cortex thinning (micro-Xray image)” value in assay [2] (0.2% by weight in cage water for one year, aged mouse femur, FIG. 3B) is “prevented the cortex or shell of the bone from thinning”. Moreover, the “Management of chronic renal calculus disease” value in assay [3] is “useful”. Besides, in assay [4] (0.2% in cage water ad libitum, three months post-OVX, microCT of distal femur, OVX without treatment approx. 40% reduction in bone volume), the “Bone loss, Bone Volume over Total Volume (BV/TV)” value is “almost completely prevented”. Further, in assay [4] (mice model of estrogen removal), the Bone mechanical property entry is given as “maintained”, the Bone mineral density entry is recorded as “maintained”, the “Cancellous bone loss after estrogen removal” value is “prevent cancellous bone loss” and the Osteocyte apoptosis entry is recorded as “prevent osteocyte apoptosis”. Besides, the “Oxidative stress in bone cells” value in assay [4] (mice model of estrogen removal) was “protect bone cells from oxidative stress”. In assay [5], the “Depression compared with placebo” value is “significantly less depressed”.
